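Grown in 96-well plates, cells were treated for 48 hours with each compound at five concentrations. Insufficient inhibition: endpoint recorded as highest concentration tested. At the GI50, growth is halved.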 The source made the active and inactive calls. Rule as the data show it: active = GI50 up to about 1.1 µM and inactive = higher.
Key:
Assay in all cases: NCI anticancer screen, dose series, 48 h
[1] = test system: 786-0
[2] = test system: A498
[3] = test system: A549
[4] = test system: ACHN
[5] = test system: BT-549
[6] = test system: CAKI-1
[7] = test system: CCRF-CEM
[8] = test system: COLO 205
[9] = test system: DU-145
[10] = test system: EKVX
[11] = test system: HCT-116
[12] = test system: HCT-15
[13] = test system: HL-60
[14] = test system: HOP-62
[15] = test system: HOP-92
[16] = test system: HT-29
[17] = test system: Hs-578T
[18] = test system: IGROV-1
[19] = test system: K562
[20] = test system: KM12
[21] = test system: LOX IMVI
[22] = test system: M14
[23] = test system: MCF7
[24] = test system: MDA-MB-231
[25] = test system: MDA-MB-435
[26] = test system: MOLT-4
[27] = test system: Malme-3M
[28] = test system: NCI-H226
[29] = test system: NCI-H23
[30] = test system: NCI-H460
[31] = test system: NCI-H522
[32] = test system: NCI/ADR-RES
[33] = test system: OVCAR-3
[34] = test system: OVCAR-4
[35] = test system: OVCAR-5
[36] = test system: OVCAR-8
[37] = test system: PC-3
[38] = test system: RPMI-8226
[39] = test system: RXF 393
[40] = test system: SF-268
[41] = test system: SF-295
[42] = test system: SF-539
[43] = test system: SK-MEL-28
[44] = test system: SK-MEL-2
[45] = test system: SK-MEL-5
[46] = test system: SK-OV-3
[47] = test system: SN12C
[48] = test system: SNB-19
[49] = test system: SNB-75
[50] = test system: SR
[51] = test system: SW-620
[52] = test system: T47D
[53] = test system: TK-10
[54] = test system: U-251
[55] = test system: UACC-257
[56] = test system: UACC-62
[57] = test system: UO-31
[58] = test system: HCC 2998
[59] = test system: MDA-N

For Cc1cc2ncn(CC(=O)O)c2cc1C, the GI50 [1] was > 100 µM (inactive), the GI50 [2] was > 100 µM (inactive) and the GI50 [3] was > 100 µM (inactive). For the same molecule, the GI50 [4] was > 100 µM (inactive), the GI50 [5] was > 100 µM (inactive) and the GI50 [6] was > 100 µM (inactive). For the same molecule, the GI50 [7] was > 100 µM (inactive), the GI50 [8] was > 100 µM (inactive) and the GI50 [9] was > 100 µM (inactive). The GI50 [10] was > 100 µM (inactive), the GI50 [11] was > 100 µM (inactive) and the GI50 [12] was over 100 µM. For the same molecule, the GI50 [13] was > 100 µM (inactive), the GI50 [14] was > 100 µM (inactive) and the GI50 [15] was > 100 µM (inactive). The GI50 [16] was > 100 µM (inactive), the GI50 [17] was > 100 µM (inactive) and the GI50 [18] was > 100 µM (inactive). For the same molecule, the GI50 [19] was > 100 µM (inactive), the GI50 [20] was > 100 µM (inactive) and the GI50 [21] was > 100 µM (inactive). For the same molecule, the GI50 [22] was > 100 µM (inactive), the GI50 [23] was > 100 µM (inactive) and the GI50 [24] was > 100 µM (inactive). The GI50 [25] was > 100 µM (inactive), the GI50 [26] was > 100 µM (inactive) and the GI50 [27] was > 100 µM (inactive). For the same molecule, the GI50 [28] was > 100 µM (inactive), the GI50 [29] was > 100 µM (inactive) and the GI50 [30] was > 100 µM (inactive). For the same molecule, the GI50 [31] was > 100 µM (inactive), the GI50 [32] was > 100 µM (inactive) and the GI50 [33] was > 100 µM (inactive). For the same molecule, the GI50 [34] was > 100 µM (inactive), the GI50 [35] was > 100 µM (inactive) and the GI50 [36] was > 100 µM (inactive). For the same molecule, the GI50 [37] was > 100 µM (inactive), the GI50 [38] was > 100 µM (inactive) and the GI50 [39] was > 100 µM (inactive). The GI50 [40] was > 100 µM (inactive), the GI50 [41] was > 100 µM (inactive) and the GI50 [42] was > 100 µM (inactive). The GI50 [43] was > 100 µM (inactive), the GI50 [44] was > 100 µM (inactive) and the GI50 [45] was > 100 µM (inactive). For the same molecule, the GI50 [46] was > 100 µM (inactive), the GI50 [47] was > 100 µM (inactive) and the GI50 [48] was > 100 µM (inactive). For the same molecule, the GI50 [49] was > 100 µM (inactive), the GI50 [50] was > 100 µM (inactive) and the GI50 [51] was > 100 µM (inactive). For the same molecule, the GI50 [52] was > 100 µM (inactive), the GI50 [53] was > 100 µM (inactive) and the GI50 [54] was > 100 µM (inactive). The GI50 [55] was > 100 µM (inactive), the GI50 [56] was > 100 µM (inactive) and the GI50 [57] was > 100 µM (inactive).

O=C(CSc1nc2ccc(I)cc2c(=O)n1Cc1ccccc1)Nc1ccc(Br)cc1 was tested, and the GI50 [1] was 58.6 µM (inactive), the GI50 [2] was 22.5 µM (inactive) and the GI50 [3] was > 100 µM (inactive). For the same molecule, the GI50 [4] was > 100 µM (inactive), the GI50 [5] was 37.1 µM (inactive) and the GI50 [6] was 1.35 µM (inactive). For the same molecule, the GI50 [7] was > 100 µM (inactive), the GI50 [8] was 59.4 µM (inactive) and the GI50 [9] was 70.5 µM (inactive). For the same molecule, the GI50 [10] was 12.9 µM (inactive), the GI50 [11] was 88.5 µM (inactive) and the GI50 [12] was 36 µM. For the same molecule, the GI50 [13] was > 100 µM (inactive), the GI50 [14] was 78.2 µM (inactive) and the GI50 [15] was 60.3 µM (inactive). The GI50 [16] was > 100 µM (inactive), the GI50 [17] was 17.8 µM (inactive) and the GI50 [18] was 29.2 µM (inactive). The GI50 [19] was 24.7 µM (inactive), the GI50 [20] was 78.7 µM (inactive) and the GI50 [21] was > 100 µM (inactive). For the same molecule, the GI50 [22] was 56.5 µM (inactive), the GI50 [23] was > 100 µM (inactive) and the GI50 [24] was 17.2 µM (inactive). For the same molecule, the GI50 [25] was > 100 µM (inactive), the GI50 [26] was > 100 µM (inactive) and the GI50 [27] was 16.6 µM (inactive). For the same molecule, the GI50 [28] was 25.9 µM (inactive), the GI50 [29] was > 100 µM (inactive) and the GI50 [31] was 46.7 µM (inactive). For the same molecule, the GI50 [32] was 51.9 µM (inactive), the GI50 [33] was 63 µM (inactive) and the GI50 [34] was 34.7 µM (inactive). For the same molecule, the GI50 [35] was 44.5 µM (inactive), the GI50 [36] was 13.4 µM (inactive) and the GI50 [37] was 17.5 µM (inactive). For the same molecule, the GI50 [38] was > 100 µM (inactive), the GI50 [39] was 43.9 µM (inactive) and the GI50 [40] was 12.2 µM (inactive). For the same molecule, the GI50 [41] was 35.6 µM (inactive), the GI50 [42] was 2.32 µM (inactive) and the GI50 [43] was 49.4 µM (inactive). The GI50 [44] was 64.1 µM (inactive), the GI50 [45] was 43.2 µM (inactive) and the GI50 [46] was > 100 µM (inactive). For the same molecule, the GI50 [47] was 37.2 µM (inactive), the GI50 [48] was 68.1 µM (inactive) and the GI50 [49] was 13.8 µM (inactive). The GI50 [50] was 11.3 µM (inactive), the GI50 [51] was 97.5 µM (inactive) and the GI50 [52] was 97.9 µM (inactive). The GI50 [54] was 39 µM (inactive), the GI50 [56] was > 100 µM (inactive) and the GI50 [57] was 0.114 µM (active).

In the case of COc1ccc(-c2cc(-c3ccc(Nc4ccnc5cc(Cl)ccc45)cc3)nc(N)c2C#N)c2ccccc12, the GI50 [1] is reported as > 100 µM (inactive), the GI50 [2] is reported as > 100 µM (inactive) and the GI50 [3] is reported as > 100 µM (inactive). For the same molecule, the GI50 [4] was > 100 µM (inactive), the GI50 [5] was > 100 µM (inactive) and the GI50 [6] was > 100 µM (inactive). The GI50 [7] was > 100 µM (inactive), the GI50 [8] was > 100 µM (inactive) and the GI50 [9] was > 100 µM (inactive). For the same molecule, the GI50 [10] was > 100 µM (inactive), the GI50 [58] was > 100 µM (inactive) and the GI50 [11] was > 100 µM (inactive). The GI50 [12] was over 100 µM, the GI50 [14] was > 100 µM (inactive) and the GI50 [16] was > 100 µM (inactive). For the same molecule, the GI50 [18] was > 100 µM (inactive), the GI50 [19] was > 100 µM (inactive) and the GI50 [20] was > 100 µM (inactive). For the same molecule, the GI50 [21] was > 100 µM (inactive), the GI50 [22] was > 100 µM (inactive) and the GI50 [23] was > 100 µM (inactive). For the same molecule, the GI50 [24] was > 100 µM (inactive), the GI50 [25] was > 100 µM (inactive) and the GI50 [59] was > 100 µM (inactive). For the same molecule, the GI50 [26] was > 100 µM (inactive), the GI50 [27] was > 100 µM (inactive) and the GI50 [28] was > 100 µM (inactive). The GI50 [29] was > 100 µM (inactive), the GI50 [30] was > 100 µM (inactive) and the GI50 [31] was > 100 µM (inactive). The GI50 [32] was > 100 µM (inactive), the GI50 [34] was > 100 µM (inactive) and the GI50 [35] was > 100 µM (inactive). The GI50 [36] was > 100 µM (inactive), the GI50 [37] was > 100 µM (inactive) and the GI50 [38] was > 100 µM (inactive). For the same molecule, the GI50 [39] was > 100 µM (inactive), the GI50 [40] was > 100 µM (inactive) and the GI50 [41] was > 100 µM (inactive). For the same molecule, the GI50 [42] was > 100 µM (inactive), the GI50 [43] was > 100 µM (inactive) and the GI50 [44] was > 100 µM (inactive). The GI50 [45] was > 100 µM (inactive), the GI50 [47] was > 100 µM (inactive) and the GI50 [48] was > 100 µM (inactive). For the same molecule, the GI50 [49] was > 100 µM (inactive), the GI50 [50] was > 100 µM (inactive) and the GI50 [51] was > 100 µM (inactive). For the same molecule, the GI50 [52] was > 100 µM (inactive), the GI50 [53] was > 100 µM (inactive) and the GI50 [54] was > 100 µM (inactive). For the same molecule, the GI50 [55] was > 100 µM (inactive), the GI50 [56] was > 100 µM (inactive) and the GI50 [57] was > 100 µM (inactive).
